The target of assay [1] is Lysosomal acid glucosylceramidase (Homo sapiens, UniProt P04062). Description: Dose response cell-based high throughput screening assay to identify enhancers of beta-glucosidase activity. [Related pubchem assays: 784 ]. It is filed as functional.
Assay [2] has as its system BJ. Put plainly: BJ-TERT fibroblast viability loss – cell-based, RAS-independent, luminescence, dose response (AID 1933). It is filed as functional. The settings on record: Homo sapiens.
For assay [3], the system named is BJ. Put plainly: BJ-TERT-LT-ST fibroblast viability loss – cell-based, RAS-independent, luminescence, dose response (AID 1935).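 Note: BJ fibroblasts immortalized with TERT plus LT and ST oncogenes.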 It is filed as functional. The settings on record: Homo sapiens.
A short description of a further assay: cells. It is filed as functional, cell-based.
Assay [4] can be described thus: alpha-synuclein stem-loop luciferase translation blockers – H4 neuroglioma cells, luminescence, confirmation (AID 1988). It is filed as functional, cell-based.
Assay [5] in a line: alpha-synuclein stem-loop translation blockers – luminescence, H4 neuroglioblastoma cells, dose confirmation, confirmation (AID 2454).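 Note: H4 neuroglioblastoma cells carrying an alpha-synuclein 5'UTR luciferase reporter; potency for inhibition of the luciferase signal.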 It is filed as functional, cell-based.
Assay [6] relates to BJ. Put plainly: cells. It is filed as functional, cell-based. The settings on record: Homo sapiens.
Assay [7] can be described thus: DRD fibroblast viability loss – cell-based, non-viral oncogenic, luminescence, dose response (AID 1934). It is filed as functional. Conditions: Homo sapiens.
Assay [8] in a line: luciferase reporter signal reduction – luminescence, H4-C neuroglioblastoma cells, dose response (AID 2458).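 Note: H4 neuroglioblastoma cells stably carrying a luciferase reporter gene fusion.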 It is filed as functional, cell-based.
A further assay deals with Staphylococcus aureus. Description: Inhibitors of Bacterial Quorum Sensing Structure Activity Relationship (SAR) Analysis: Dose Response Assay. [Related pubchem assays: 700, 527 ]. It is filed as functional, organism-based.
A further assay relates to HEK293. Put plainly: Fluorescence-based counterscreen for potentiators or agonists of NPY-Y2: cell-based high-throughput dose response assay to identify inhibitors of cyclic nucleotide gated ion channel (CNGC) activity. In this assay, the parental HEK293 cell line transfected with a cyclic-nucleotide gated ion channel (CNGC)-based cAMP sensor is used to measure inhibition of isoproterenol-induced CNGC activity by test compound. It is filed as functional. Conditions: Homo sapiens.

Assay [9] addresses T1, Neuropeptide Y receptor type 1 (Homo sapiens, UniProt P25929).
T1 sequence (P25929 whole entry): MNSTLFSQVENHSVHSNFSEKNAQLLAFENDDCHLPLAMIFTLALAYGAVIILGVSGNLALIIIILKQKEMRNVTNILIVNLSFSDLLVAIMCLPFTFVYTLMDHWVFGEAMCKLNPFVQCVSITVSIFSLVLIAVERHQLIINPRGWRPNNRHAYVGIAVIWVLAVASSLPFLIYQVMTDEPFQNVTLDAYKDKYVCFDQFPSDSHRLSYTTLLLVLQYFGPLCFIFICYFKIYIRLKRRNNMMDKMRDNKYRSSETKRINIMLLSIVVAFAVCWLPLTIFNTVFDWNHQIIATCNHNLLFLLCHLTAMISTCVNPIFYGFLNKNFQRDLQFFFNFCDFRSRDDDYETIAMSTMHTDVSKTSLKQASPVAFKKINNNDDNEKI
Put plainly: Fluorescence-based counterscreen for agonists of NPY-Y2: cell-based high-throughput dose response assay for agonists of NPY-Y1. It is filed as functional.

In assay [10] the target is T2, Neuropeptide Y receptor type 2 (Homo sapiens, UniProt P49146).
T2 sequence (P49146 whole entry): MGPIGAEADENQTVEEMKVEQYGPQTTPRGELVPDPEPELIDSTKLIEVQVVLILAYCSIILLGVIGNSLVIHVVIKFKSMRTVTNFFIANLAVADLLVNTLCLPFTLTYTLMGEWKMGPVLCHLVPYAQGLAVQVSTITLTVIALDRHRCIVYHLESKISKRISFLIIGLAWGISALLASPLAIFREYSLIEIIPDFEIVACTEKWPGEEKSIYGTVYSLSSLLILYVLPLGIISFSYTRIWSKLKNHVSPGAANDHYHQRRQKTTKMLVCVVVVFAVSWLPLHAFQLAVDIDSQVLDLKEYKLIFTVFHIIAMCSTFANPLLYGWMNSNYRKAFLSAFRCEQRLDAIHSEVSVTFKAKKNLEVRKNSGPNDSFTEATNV
Put plainly: Fluorescence-based cell-based high-throughput dose response assay for potentiators or agonists of NPY-Y2. [Related pubchem assays: 1539 (Screening assay (NPY-Y2 potentiators or agonists).), 1703 (Screening assay (CNGC inhibitors).), 1359 (Screening assay (NPY-Y2 potentiators or agonists).), 1304 (Screening assay (NPY-Y1 potentiators or agonists).) …. It is filed as functional.

Assay [11] deals with T2, Neuropeptide Y receptor type 2. Description: Fluorescence-based cell-based high-throughput dose response assay for agonists of NPY-Y2. [Related pubchem assays: 1703 (Screening assay (CNGC inhibitors).), 1359 (Screening assay (NPY-Y2 potentiators or agonists).), 1304 (Screening assay (NPY-Y1 potentiators or agonists).), 1710 (Screening assay (NPY-Y2 agonists).), 1791 (Summary AID.)]. It is filed as functional.

Assay [12] concerns the target T1, Neuropeptide Y receptor type 1. Description: Fluorescence-based counterscreen for potentiators or agonists of NPY-Y2: cell-based high-throughput dose response assay for potentiators or agonists of NPY-Y1. It is filed as functional.
For another assay, the target named is Cytochrome P450 2C9 (Homo sapiens, UniProt P11712). Conditions: Potency.
The next assay addresses Cytochrome P450 2D6 (Homo sapiens, UniProt P10635). Put plainly: qHTS Assay for Inhibitors and Substrates of Cytochrome P450 2D6. [Related pubchem assays: 410 ]. Conditions: read-out: Potency. It is filed as ADME.
The target in assay [13] is Signal transducer and activator of transcription 3 (Homo sapiens, UniProt P40763). Put plainly: STAT3 activation with BCL3 mRNA and toxicity – cell-based, […], BCL3 qPCR, cytotoxicity, late-stage follow-up, panel member STAT3 Activation (AID 2049).
In assay [14] the target is Inward rectifier potassium channel 2 (Mus musculus, UniProt P35561). Description: Manual electrophysiological patch clamp assay for SAR compounds that inhibit/block inward-rectifying potassium ion channel Kir2.1. [Related pubchem assays: 1843 (Summary assay for Kir2.1 inhibitor assays.), 1672 (Primary HTS of 305616 compounds where 2592 were identified as active.)]. It is filed as functional.

The target in assay [15] is Sphingosine 1-phosphate receptor 2 (Homo sapiens, UniProt O95136). Put plainly: Dose Response Cell Based Assay for Agonists of the S1P2 Receptor of Purchased Analogues. [Related pubchem assays: 729, 843, 854, 736 ]. It is filed as functional.
Assay [16] can be described thus: Luminescence Cell-Based Dose Retest to Confirm Inhibitors of Cancer Stem Cells. [Related pubchem assays (depositor defined):AID2717, AID2721]. It is filed as functional. Conditions: Homo sapiens.

Activity calls are given as the source filed them.

Lysosomal acid glucosylceramidase, sequence (P04062 whole entry): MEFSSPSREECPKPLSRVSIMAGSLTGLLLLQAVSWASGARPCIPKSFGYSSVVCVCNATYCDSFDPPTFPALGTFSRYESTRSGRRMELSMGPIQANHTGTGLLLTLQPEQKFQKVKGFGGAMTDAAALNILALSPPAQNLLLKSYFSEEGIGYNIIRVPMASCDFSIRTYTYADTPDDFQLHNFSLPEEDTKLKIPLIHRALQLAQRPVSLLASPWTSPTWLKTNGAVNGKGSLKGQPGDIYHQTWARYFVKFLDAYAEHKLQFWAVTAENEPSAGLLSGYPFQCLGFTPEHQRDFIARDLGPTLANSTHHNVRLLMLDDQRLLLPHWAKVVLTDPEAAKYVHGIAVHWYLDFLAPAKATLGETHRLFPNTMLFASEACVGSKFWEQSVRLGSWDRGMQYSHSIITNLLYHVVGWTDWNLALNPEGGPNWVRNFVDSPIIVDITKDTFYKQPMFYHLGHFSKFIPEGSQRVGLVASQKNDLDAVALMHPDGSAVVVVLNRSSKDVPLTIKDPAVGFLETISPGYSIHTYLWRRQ
Inward rectifier potassium channel 2, sequence (P35561 whole entry): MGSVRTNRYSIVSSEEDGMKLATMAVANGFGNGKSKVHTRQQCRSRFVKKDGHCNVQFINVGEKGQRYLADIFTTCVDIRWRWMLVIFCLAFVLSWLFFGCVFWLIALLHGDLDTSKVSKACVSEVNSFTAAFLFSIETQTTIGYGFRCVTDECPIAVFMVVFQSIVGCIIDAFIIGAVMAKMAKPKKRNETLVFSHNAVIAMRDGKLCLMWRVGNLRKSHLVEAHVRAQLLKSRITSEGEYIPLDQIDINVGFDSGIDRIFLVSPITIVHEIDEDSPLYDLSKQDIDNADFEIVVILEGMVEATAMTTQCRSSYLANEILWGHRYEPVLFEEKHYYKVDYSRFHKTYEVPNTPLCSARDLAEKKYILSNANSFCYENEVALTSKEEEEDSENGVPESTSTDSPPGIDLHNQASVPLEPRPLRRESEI
Cytochrome P450 2D6, sequence (P10635 whole entry): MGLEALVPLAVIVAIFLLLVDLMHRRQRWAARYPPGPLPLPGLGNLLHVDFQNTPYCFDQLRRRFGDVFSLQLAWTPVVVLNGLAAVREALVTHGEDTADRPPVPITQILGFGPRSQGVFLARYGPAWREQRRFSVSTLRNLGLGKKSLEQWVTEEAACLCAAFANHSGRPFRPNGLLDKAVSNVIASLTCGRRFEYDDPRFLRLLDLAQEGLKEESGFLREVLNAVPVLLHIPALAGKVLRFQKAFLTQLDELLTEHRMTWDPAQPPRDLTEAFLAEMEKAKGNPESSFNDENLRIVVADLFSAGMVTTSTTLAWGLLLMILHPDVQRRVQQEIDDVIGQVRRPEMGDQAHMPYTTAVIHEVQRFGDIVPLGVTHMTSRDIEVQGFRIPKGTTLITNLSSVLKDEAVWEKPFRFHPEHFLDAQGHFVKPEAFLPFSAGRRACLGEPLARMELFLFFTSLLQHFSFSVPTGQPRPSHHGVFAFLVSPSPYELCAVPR
Cytochrome P450 2C9, sequence (P11712 whole entry): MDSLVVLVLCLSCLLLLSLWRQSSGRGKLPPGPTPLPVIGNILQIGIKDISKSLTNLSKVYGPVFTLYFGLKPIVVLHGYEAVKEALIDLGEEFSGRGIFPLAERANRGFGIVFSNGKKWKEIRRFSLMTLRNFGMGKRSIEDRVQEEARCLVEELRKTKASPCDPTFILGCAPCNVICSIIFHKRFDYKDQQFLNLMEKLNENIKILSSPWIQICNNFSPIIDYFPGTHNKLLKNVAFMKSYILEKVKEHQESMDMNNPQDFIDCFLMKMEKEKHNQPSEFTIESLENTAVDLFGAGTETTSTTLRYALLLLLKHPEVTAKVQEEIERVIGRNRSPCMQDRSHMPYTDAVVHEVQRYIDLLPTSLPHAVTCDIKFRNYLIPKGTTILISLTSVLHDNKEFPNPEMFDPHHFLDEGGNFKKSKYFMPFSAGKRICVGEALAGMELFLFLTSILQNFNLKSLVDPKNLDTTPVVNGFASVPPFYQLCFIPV
Signal transducer and activator of transcription 3, sequence (P40763 whole entry): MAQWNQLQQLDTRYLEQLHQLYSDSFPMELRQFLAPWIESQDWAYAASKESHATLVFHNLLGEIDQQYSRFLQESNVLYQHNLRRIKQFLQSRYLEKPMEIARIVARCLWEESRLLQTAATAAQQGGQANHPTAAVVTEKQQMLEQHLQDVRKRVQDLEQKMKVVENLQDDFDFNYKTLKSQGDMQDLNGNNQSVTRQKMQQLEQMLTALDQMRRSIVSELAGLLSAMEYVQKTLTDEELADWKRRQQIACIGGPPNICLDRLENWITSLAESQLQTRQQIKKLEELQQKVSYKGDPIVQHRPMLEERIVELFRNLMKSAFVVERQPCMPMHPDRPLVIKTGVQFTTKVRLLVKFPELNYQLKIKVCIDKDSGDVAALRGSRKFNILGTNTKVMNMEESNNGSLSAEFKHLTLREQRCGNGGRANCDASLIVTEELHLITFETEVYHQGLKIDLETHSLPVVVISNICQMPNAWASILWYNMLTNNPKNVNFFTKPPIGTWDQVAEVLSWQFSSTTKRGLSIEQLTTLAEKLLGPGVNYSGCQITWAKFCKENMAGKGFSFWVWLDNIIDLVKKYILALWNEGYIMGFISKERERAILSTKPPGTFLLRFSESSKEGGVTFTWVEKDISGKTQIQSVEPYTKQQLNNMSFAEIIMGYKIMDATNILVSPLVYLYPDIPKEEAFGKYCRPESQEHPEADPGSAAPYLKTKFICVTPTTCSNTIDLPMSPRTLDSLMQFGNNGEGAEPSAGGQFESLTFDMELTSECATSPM
Sphingosine 1-phosphate receptor 2, sequence (O95136 whole entry): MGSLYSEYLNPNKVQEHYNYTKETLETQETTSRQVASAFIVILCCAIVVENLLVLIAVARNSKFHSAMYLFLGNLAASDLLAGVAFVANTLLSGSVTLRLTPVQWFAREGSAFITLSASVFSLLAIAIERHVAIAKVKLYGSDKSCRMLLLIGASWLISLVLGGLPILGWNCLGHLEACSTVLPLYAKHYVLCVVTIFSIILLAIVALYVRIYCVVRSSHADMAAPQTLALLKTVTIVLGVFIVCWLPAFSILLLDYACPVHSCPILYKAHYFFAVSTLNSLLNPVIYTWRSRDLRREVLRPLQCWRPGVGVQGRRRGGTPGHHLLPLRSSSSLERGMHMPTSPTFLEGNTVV

For the molecule `N#Cc1c2n(c3c(=O)n(Cc4ccccc4Cl)cnc13)CCCCC2`, the EC50 in assay [1] is > 50 µM (not active).

Take `CCOc1ccc(S(=O)(=O)Nc2cc(OC)ccc2OC)cc1`: the EC50 in the assay on BJ [2] is 0.451 µM (active); with BJ [3], 0.495 µM (inconclusive); in the assay “cells” it was 0.839 µM (active); in assay [4], < 0.1 µM (active); in [5] it was 0.947 µM (active); in the assay with BJ [6], 21.2 µM (active). Also, the EC50 in [7] is 0.965 µM (inconclusive); in [8], 0.553 µM (active).

With `CC(C)c1ccc(NC(=O)C(c2ccc3c(c2)OCO3)N2CCCCC2)cc1` (stereo unspecified), the IC50 in the assay with Staphylococcus aureus was 0.254 µM (active).

As for `Cc1cccc2c(N)c3c(nc12)CCCC3.O=C(O)c1cc([N+](=O)[O-])ccc1Cl`, the EC50 with HEK293 is 8.74 µM (active); in [9], 3.41 µM (active); in assay [10], 5.24 µM (active); in [11], 3.65 µM (active); in assay [12] it was 5.53 µM (active).

For the molecule `CC(=O)OC(C)(C)/N=N\c1ccc(Br)cc1`, the AC50 is 5.01 µM (inconclusive) at Cytochrome P450 2C9 and 3.16 µM (inconclusive) on Cytochrome P450 2D6.

Consider `COc1ccc(OC)c(NC(=O)c2cc(CN3CCCC3)on2)c1`, for which the EC50 in [13] was > 55.7 µM (inactive).

Turning to `COc1ccc(CNCc2cc(F)cc(F)c2)cc1`, the IC50 in assay [14] is 7.22 µM (active).

Take `Cc1cc(C(=O)CN2C(=O)C(=O)N(Cc3ccccc3)C2=O)c(C)n1Cc1ccccc1`: the EC50 in assay [15] is > 30 µM (not active). In addition, in [16], the AC50 is 2.54 µM (active).
